Experimental data reported in ChEMBL document CHEMBL1201862, “PubChem BioAssay data set” (2004).
Activity calls are given as the source filed them. For most assays here, no stated cut-off is given here; in the data, actives have a measured EC50 and inactives only a lower limit.

How the values were obtained:
[1] = target: T1, Heat shock factor protein 1 (Mus musculus, UniProt P38532); assay: HSF1 potentiators in luciferase reporter cells, confirmation, cell-based, NIH3T3, luminescence, dose retest (AID 435004); type: functional;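 further: stress induced by proteasome inhibitor MG132 added 30 min after compound; luciferase reporter driven by HSF1 response element in NIH3T3 cells; actives raise luminescence as potentiators of the MG132 stress response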
T1 sequence (P38532 whole entry): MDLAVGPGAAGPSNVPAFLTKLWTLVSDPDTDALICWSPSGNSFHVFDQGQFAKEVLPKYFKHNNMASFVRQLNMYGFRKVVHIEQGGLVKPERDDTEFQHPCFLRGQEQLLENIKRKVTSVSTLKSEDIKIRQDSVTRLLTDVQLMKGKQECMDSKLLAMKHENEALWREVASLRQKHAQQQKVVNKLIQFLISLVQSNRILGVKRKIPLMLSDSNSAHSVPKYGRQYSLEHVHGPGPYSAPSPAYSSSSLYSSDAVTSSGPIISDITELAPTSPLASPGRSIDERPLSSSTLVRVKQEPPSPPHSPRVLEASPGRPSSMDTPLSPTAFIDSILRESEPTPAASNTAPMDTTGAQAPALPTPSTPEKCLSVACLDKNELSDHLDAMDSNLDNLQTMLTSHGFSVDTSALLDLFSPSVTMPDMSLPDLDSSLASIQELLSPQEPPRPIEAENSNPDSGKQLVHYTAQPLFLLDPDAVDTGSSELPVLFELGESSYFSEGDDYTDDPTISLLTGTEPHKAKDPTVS

[2] = target: T2, RNA-binding protein pos-1 (Caenorhabditis elegans, UniProt G5EF15); assay: inhibitors of POS-1/mex-3 RNA binding, dose response, biochemical, fluorescence polarization (AID 1964);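 further: purified POS-1 fused to maltose binding protein made in E. coli; potency of compounds blocking POS-1 binding to fluorescent RNA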
T2 sequence (G5EF15 whole entry): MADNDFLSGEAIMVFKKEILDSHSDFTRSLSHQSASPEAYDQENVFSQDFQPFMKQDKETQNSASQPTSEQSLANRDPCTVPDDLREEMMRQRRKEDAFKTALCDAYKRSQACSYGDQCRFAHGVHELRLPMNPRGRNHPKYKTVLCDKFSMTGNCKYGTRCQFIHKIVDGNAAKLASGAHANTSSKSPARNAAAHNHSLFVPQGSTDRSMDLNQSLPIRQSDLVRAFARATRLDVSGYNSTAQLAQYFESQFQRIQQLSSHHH

[3] = target: T3, Zinc finger protein mex-5 (Caenorhabditis elegans, UniProt Q9XUB2); assay: MEX-5/TCR-2 RNA interaction inhibitors, dose response, biochemical, C. elegans, fluorescence polarization (AID 1960)
T3 sequence (Q9XUB2 whole entry): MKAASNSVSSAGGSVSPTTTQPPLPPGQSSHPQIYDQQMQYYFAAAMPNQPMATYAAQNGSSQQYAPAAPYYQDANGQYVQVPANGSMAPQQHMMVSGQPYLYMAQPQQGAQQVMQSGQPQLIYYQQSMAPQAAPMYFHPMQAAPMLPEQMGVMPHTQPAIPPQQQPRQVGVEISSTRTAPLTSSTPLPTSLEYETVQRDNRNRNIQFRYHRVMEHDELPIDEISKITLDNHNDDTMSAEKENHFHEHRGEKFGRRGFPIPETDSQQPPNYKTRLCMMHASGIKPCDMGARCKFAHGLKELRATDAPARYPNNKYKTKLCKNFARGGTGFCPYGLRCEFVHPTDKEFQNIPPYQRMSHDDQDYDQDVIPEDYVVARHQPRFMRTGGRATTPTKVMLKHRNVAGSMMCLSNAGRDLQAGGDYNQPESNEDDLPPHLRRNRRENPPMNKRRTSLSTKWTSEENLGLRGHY

[4] = target: T4, Corticotropin-releasing factor receptor 2/Corticotropin-releasing factor-binding protein (Homo sapiens, UniProt P24387+Q13324); assay: Dose Response confirmation of uHTS hits for small molecule antagonists of the CRF-binding protein and CRF-R2 receptor complex.; type: functional; conditions: read-out: IC50_Mean
T4 sequence (Q13324 whole entry): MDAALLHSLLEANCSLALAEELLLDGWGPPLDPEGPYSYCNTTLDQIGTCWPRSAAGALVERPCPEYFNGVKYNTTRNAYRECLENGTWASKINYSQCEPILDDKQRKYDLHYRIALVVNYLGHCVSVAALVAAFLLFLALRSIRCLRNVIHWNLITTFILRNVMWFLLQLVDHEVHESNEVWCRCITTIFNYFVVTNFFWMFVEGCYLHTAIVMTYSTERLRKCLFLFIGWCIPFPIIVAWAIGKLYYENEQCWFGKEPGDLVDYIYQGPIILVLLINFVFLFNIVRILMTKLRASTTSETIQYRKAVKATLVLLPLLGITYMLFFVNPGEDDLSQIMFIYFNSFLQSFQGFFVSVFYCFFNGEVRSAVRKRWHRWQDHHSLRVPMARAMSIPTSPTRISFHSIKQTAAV
T4 sequence (P24387 whole entry): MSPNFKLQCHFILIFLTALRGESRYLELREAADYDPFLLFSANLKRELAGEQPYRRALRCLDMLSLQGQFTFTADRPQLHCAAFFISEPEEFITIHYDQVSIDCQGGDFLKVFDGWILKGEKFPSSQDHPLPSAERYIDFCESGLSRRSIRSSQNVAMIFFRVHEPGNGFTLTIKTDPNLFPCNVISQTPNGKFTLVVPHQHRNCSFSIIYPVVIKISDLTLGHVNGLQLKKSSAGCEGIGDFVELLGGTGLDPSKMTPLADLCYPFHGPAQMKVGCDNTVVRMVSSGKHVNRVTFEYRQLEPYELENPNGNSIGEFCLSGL

[5] = target: T4, Corticotropin-releasing factor receptor 2/Corticotropin-releasing factor-binding protein; assay: activators of CRF receptor 2 with binding protein – uHTS hits, confirmation (AID 602473); type: functional; conditions: read-out: EC50_Mean
[6] = target: T5, Protein skinhead-1 (Caenorhabditis elegans, UniProt P34707); type: functional
T5 sequence (P34707 whole entry): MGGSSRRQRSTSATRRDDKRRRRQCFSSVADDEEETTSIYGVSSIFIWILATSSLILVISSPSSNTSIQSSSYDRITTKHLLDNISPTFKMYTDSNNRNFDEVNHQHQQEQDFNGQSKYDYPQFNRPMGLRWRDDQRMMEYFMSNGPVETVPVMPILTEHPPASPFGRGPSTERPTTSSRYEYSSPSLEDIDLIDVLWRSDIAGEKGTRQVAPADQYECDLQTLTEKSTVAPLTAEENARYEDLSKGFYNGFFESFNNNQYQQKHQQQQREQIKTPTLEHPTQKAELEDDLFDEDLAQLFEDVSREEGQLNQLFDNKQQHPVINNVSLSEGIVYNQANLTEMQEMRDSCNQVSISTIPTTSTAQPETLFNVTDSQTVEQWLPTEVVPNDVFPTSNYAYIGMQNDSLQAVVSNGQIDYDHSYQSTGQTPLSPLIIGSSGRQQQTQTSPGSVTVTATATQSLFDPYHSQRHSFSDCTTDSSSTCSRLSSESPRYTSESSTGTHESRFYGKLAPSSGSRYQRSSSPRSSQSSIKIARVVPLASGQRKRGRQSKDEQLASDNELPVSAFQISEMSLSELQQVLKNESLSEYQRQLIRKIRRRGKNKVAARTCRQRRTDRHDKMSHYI

[7] = tested on: BJ; assay: cytotoxicity toward BJ-TERT fibroblasts, dose response, cell-based, RAS-independent, luminescence (AID 1933); type: functional; conditions: Homo sapiens
[8] = tested on: BJ; assay: cells; type: functional, cell-based; conditions: Homo sapiens
[9] = tested on: BJ; assay: cytotoxicity toward BJ-TERT-LT-ST fibroblasts, dose response, cell-based, RAS-independent, luminescence (AID 1935); type: functional; conditions: Homo sapiens;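 further: BJ fibroblasts immortalized with TERT plus LT and ST oncogenes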
[10] = cytotoxicity toward DRD oncogenic fibroblasts, dose response, cell-based, non-viral oncogenic, luminescence (AID 1934); type: functional; conditions: Homo sapiens
[11] = inhibitors of intracellular T. cruzi replication, confirmation, NIH3T3 host cells, beta-gal luminescence (AID 2044); type: functional, cell-based;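 further: intracellular parasites grown in NIH/3T3 mouse fibroblasts as host cells; luminescent beta-galactosidase reporter signal from transgenic T. cruzi replicating inside host cells; inhibitors lower the luminescence signal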
[12] = cytotoxicity toward NIH3T3 fibroblasts, dose response, counter-screen, cell-based, ATP luminescence, mouse fibroblasts (AID 2010); type: functional;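 further: cells exposed to compound for about 90 hours before reading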
[13] = Luminescence Cell-Based Dose Response HTS to Identify Activators of Luciferase Translation or Activity in H4 […] Cells. [Related pubchem assays: 1829 (Project Summary), 1814 (Primary HTS)]; type: functional
[14] = tested on: H4; assay: Luminescence Cell-Based Dose Response HTS to Identify Activators of 5'UTR Stem-Loop Driven Prion Protein mRNA Translation in H4 Neuroglioblastoma Cells. [Related pubchem assays: 1829 (Project Summary), 1814 (Primary HTS)]; type: functional; conditions: Homo sapiens

In the case of `CCC(C)NC(=O)c1nc(O)c2nnn(Cc3ccccc3Cl)c2n1` (stereo not given), the EC50 [1] is reported as > 260 µM (inactive).

In the case of `O=c1oc2ccccc2c(NC2CCCCC2)c1NS(=O)(=O)c1ccc(Cl)cc1`, the EC50 [1] is reported as 120 µM (active).

For `O=C1NC(=O)N(c2ccccc2F)C(=O)/C1=C/c1cn(CC(=O)N2CCOCC2)c2ccccc12`, the EC50 [2] was > 300 µM (not active) and the EC50 [3] was > 300 µM (not active).

In the case of `O=C(CNC(=O)C1CCCCC1)Nc1ccc(F)c(Cl)c1`, the IC50 [4] is reported as > 47.1 µM (inactive) and the EC50 [5] is reported as > 53 µM (inactive).

In the case of `CCN1CCN(Cc2c(O)ccc3c2O/C(=C\c2ccccc2)C3=O)CC1`, the EC50 [2] is reported as 30.3 µM (active) and the EC50 [3] is reported as 57.9 µM (active).

In the case of `O=S(=O)(Cc1cc(Sc2ccccc2)nc(-c2ccccc2)n1)c1ccccc1`, the IC50 [6] is reported as > 100 µM (inactive).

With `Cc1ccc(C(=O)c2cc([N+](=O)[O-])ccc2N2CCN(C)CC2)cc1` the EC50 [7] was 12.5 µM (active), the EC50 [8] was 21.1 µM (inconclusive) and the EC50 [9] was 13.5 µM (inconclusive). The EC50 [10] was 15.8 µM (inconclusive).

In the case of `O=C(Nc1nc(-c2ccc(Cl)s2)cs1)c1ccco1`, the IC50 [6] is reported as 13.7 µM (active).

For `Fc1ccccc1OCCSc1nc2ccccc2o1`, the IC50 [6] was 36.3 µM (active).

For `COc1cc(/C=C2/N=C(c3ccccc3)OC2=O)c(F)cc1OCc1ccccc1`, the EC50 [2] was > 300 µM (not active) and the EC50 [3] was > 300 µM (inconclusive).

In the case of `Cc1ccc(O)c(NC(=O)Cc2ccc3ccccc3c2)c1`, the EC50 [1] is reported as 7.7 µM (active).

With `Sc1nc(-c2ccc(Br)cc2)cn1CCc1ccccc1` the EC50 [1] was > 260 µM (inactive).

For `Cc1cc(C)c(OCCN(C)Cc2ccccc2)c(Br)c1`, the EC50 [11] was 1.68 µM (active), the EC50 [12] was > 60 µM (not active) and the IC50 [4] was > 47.1 µM (inactive). The EC50 [5] was > 53 µM (inactive).

For `COC(=O)c1ccc(-n2c(C)cc(C(=O)COC(=O)CC3Sc4ccccc4NC3=O)c2C)cc1` (stereo not given), the EC50 [2] was > 300 µM (not active) and the EC50 [3] was > 300 µM (not active).

For `COc1ccc(/C=C/c2cc(C(F)(F)F)nc(O)n2)cc1OC`, the EC50 [2] was > 300 µM (not active) and the EC50 [3] was > 300 µM (not active).

For `Brc1ccc2oc(-c3cc[nH]n3)cc2c1`, the EC50 [13] was 0.281 µM (active), the EC50 [14] was 93.8 µM (active) and the IC50 [6] was 80 µM (inactive).
